In PubChem BioAssay AID1963962 (Molecular Pharmacology Branch, DTP, NCI, 2024):
Values joined by “and” are separate entries in the source; they are usually repeats but may differ in a detail not shown here. Equal values may be shown once.

System: 967376-340-R-J2-PDC multicell spheroid viability
Experiment: Anticancer human tumor 967376-340-R-J2-PDC patient-derived colon adenocarcinoma cell line growth inhibition [PI3K]
Conditions: for viability, T/C: stronger effect = lower value
In short: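 Stroma-containing spheroids: tumor line, pooled-donor HUVEC, hMSC. Treatments: targeted agents with PI3K inhibitors. Dosing: clinically relevant, half-log spacing, 10 microM ceiling without known Cmax. Read-out: cell viability.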

[1] = curve of first compound, second compound 0.0316 µM
[2] = curve of first compound, second compound 0.1 µM
[3] = curve of first compound, second compound 0.316 µM
[4] = curve of first compound, second compound 1 µM
[5] = curve of first compound, second compound 3.16 µM
[6] = curve of first compound, second compound 10 µM
[7] = second compound 0.0316 µM, first compound 0.0316 µM
[8] = second compound 0.0316 µM, first compound 0.1 µM
[9] = second compound 0.0316 µM, first compound 0.316 µM
[10] = second compound 0.0316 µM, first compound 1 µM
[11] = second compound 0.0316 µM, first compound 3.16 µM
[12] = second compound 0.0316 µM, first compound 10 µM
[13] = second compound 0.1 µM, first compound 0.0316 µM
[14] = second compound 0.1 µM, first compound 0.1 µM
[15] = second compound 0.1 µM, first compound 0.316 µM
[16] = second compound 0.1 µM, first compound 1 µM
[17] = second compound 0.1 µM, first compound 3.16 µM
[18] = second compound 0.1 µM, first compound 10 µM
[19] = second compound 0.316 µM, first compound 0.0316 µM
[20] = second compound 0.316 µM, first compound 0.1 µM
[21] = second compound 0.316 µM, first compound 0.316 µM
[22] = second compound 0.316 µM, first compound 1 µM
[23] = second compound 0.316 µM, first compound 3.16 µM
[24] = second compound 0.316 µM, first compound 10 µM
[25] = second compound 1 µM, first compound 0.0316 µM
[26] = second compound 1 µM, first compound 0.1 µM
[27] = second compound 1 µM, first compound 0.316 µM
[28] = second compound 1 µM, first compound 1 µM
[29] = second compound 1 µM, first compound 3.16 µM
[30] = second compound 1 µM, first compound 10 µM
[31] = second compound 3.16 µM, first compound 0.0316 µM
[32] = second compound 3.16 µM, first compound 0.1 µM
[33] = second compound 3.16 µM, first compound 0.316 µM
[34] = second compound 3.16 µM, first compound 1 µM
[35] = second compound 3.16 µM, first compound 3.16 µM
[36] = second compound 3.16 µM, first compound 10 µM
[37] = second compound 10 µM, first compound 0.0316 µM
[38] = second compound 10 µM, first compound 0.1 µM
[39] = second compound 10 µM, first compound 0.316 µM
[40] = second compound 10 µM, first compound 1 µM
[41] = second compound 10 µM, first compound 3.16 µM
[42] = second compound 10 µM, first compound 10 µM
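Note: spheroids exposed to agents for 7 days before read-out.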
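Throughout, for viability, T/C: luminescence used as surrogate of cell viability.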

CC1(C)CCC(Nc2ncc(C(F)(F)F)c(-c3c[nH]c4c(P(C)(C)=O)c(C#N)ccc34)n2)CN1 (centres undefined)
viability, T/C (compound 0.0316 µM): 88.9% [middle of 4 runs]
viability, T/C (compound 0.316 µM): 73.3% [middle of 4 runs]
viability, T/C (compound 1 µM): 71.2% [middle of 4 runs]
viability, T/C (compound 3.16 µM): 69.4% [middle of 4 runs]
viability, T/C (compound 10 µM): 48.1% [middle of 4 runs]
IC50 (curve of compound): 9.93 µM and > 10 µM and 2.51 µM

Cn1ncc(Cl)c1-c1cc(C(=O)NC(CN)Cc2cccc(F)c2)sc1Cl (centres undefined) + Cc1nc(NC(=O)N2CCCC2C(N)=O)sc1-c1ccnc(C(C)(C)C(F)(F)F)c1
IC50 [1]: > 10 µM
IC50 [2]: 7.44 µM
IC50 [3]: > 10 µM
IC50 [4]: 4.6 µM
IC50 [5]: 5.42 µM
IC50 [6]: 0.366 µM
viability, T/C [7]: 108%
viability, T/C [8]: 79%
viability, T/C [9]: 77.8%
viability, T/C [10]: 72.3%
viability, T/C [11]: 61.3%
viability, T/C [12]: 71.4%
viability, T/C [13]: 75.6%
viability, T/C [14]: 91%
viability, T/C [15]: 76.5%
viability, T/C [16]: 82.6%
viability, T/C [17]: 75.2%
viability, T/C [18]: 41.1%
viability, T/C [19]: 72.8%
viability, T/C [20]: 82%
viability, T/C [21]: 78.1%
viability, T/C [22]: 89.6%
viability, T/C [23]: 61.6%
viability, T/C [24]: 59.9%
viability, T/C [25]: 62.2%
viability, T/C [26]: 83.4%
viability, T/C [27]: 60.5%
viability, T/C [28]: 65%
viability, T/C [29]: 55.3%
viability, T/C [30]: 38.9%
viability, T/C [31]: 52.2%
viability, T/C [32]: 55.9%
viability, T/C [33]: 53.2%
viability, T/C [34]: 61.3%
viability, T/C [35]: 52%
viability, T/C [36]: 42.4%
viability, T/C [37]: 60.4%
viability, T/C [38]: 55.6%
viability, T/C [39]: 51.2%
viability, T/C [40]: 40.8%
viability, T/C [41]: 46.7%
viability, T/C [42]: 32.8%

CCCS(=O)(=O)Nc1ccc(F)c(C(=O)c2c[nH]c3ncc(-c4ccc(Cl)cc4)cc23)c1F + Cc1nc(NC(=O)N2CCCC2C(N)=O)sc1-c1ccnc(C(C)(C)C(F)(F)F)c1
IC50 [1]: 6.97 µM
IC50 [2]: > 10 µM
IC50 [3]: 8.25 µM
IC50 [4]: 6.02 µM
IC50 [5]: > 10 µM
IC50 [6]: 4.47 µM
viability, T/C [7]: 80.2%
viability, T/C [8]: 82%
viability, T/C [9]: 101%
viability, T/C [10]: 102%
viability, T/C [11]: 105%
viability, T/C [12]: 29.8%
viability, T/C [13]: 95.7%
viability, T/C [14]: 72%
viability, T/C [15]: 77.2%
viability, T/C [16]: 80%
viability, T/C [17]: 117%
viability, T/C [18]: 60.3%
viability, T/C [19]: 63%
viability, T/C [20]: 81.2%
viability, T/C [21]: 68.7%
viability, T/C [22]: 91.7%
viability, T/C [23]: 88.4%
viability, T/C [24]: 44.3%
viability, T/C [25]: 78.2%
viability, T/C [26]: 69.1%
viability, T/C [27]: 74%
viability, T/C [28]: 74.8%
viability, T/C [29]: 66.3%
viability, T/C [30]: 36.6%
viability, T/C [31]: 50.5%
viability, T/C [32]: 56.5%
viability, T/C [33]: 60.3%
viability, T/C [34]: 65.6%
viability, T/C [35]: 71.4%
viability, T/C [36]: 61.4%
viability, T/C [37]: 59.7%
viability, T/C [38]: 46.9%
viability, T/C [39]: 69.2%
viability, T/C [40]: 49.6%
viability, T/C [41]: 65.1%
viability, T/C [42]: 31.1%

C[C@@H](NC(=O)c1ncnc(N)c1Cl)c1ncc(C(=O)Nc2cc(C(F)(F)F)c(Cl)cn2)s1 + Cc1nc(NC(=O)N2CCCC2C(N)=O)sc1-c1ccnc(C(C)(C)C(F)(F)F)c1
IC50 [1]: > 10 µM
IC50 [2]: > 10 µM
IC50 [3]: > 10 µM
IC50 [4]: > 10 µM
IC50 [5]: > 10 µM
IC50 [6]: > 10 µM
viability, T/C [7]: 87.1%
viability, T/C [8]: 88.3%
viability, T/C [9]: 84.6%
viability, T/C [10]: 105%
viability, T/C [11]: 94.2%
viability, T/C [12]: 100%
viability, T/C [13]: 105%
viability, T/C [14]: 77.1%
viability, T/C [15]: 85.4%
viability, T/C [16]: 96.7%
viability, T/C [17]: 98.3%
viability, T/C [18]: 97.6%
viability, T/C [19]: 65.6%
viability, T/C [20]: 100%
viability, T/C [21]: 68%
viability, T/C [22]: 99.7%
viability, T/C [23]: 89.7%
viability, T/C [24]: 78.7%
viability, T/C [25]: 72.8%
viability, T/C [26]: 80.4%
viability, T/C [27]: 79.6%
viability, T/C [28]: 70.1%
viability, T/C [29]: 96.6%
viability, T/C [30]: 76%
viability, T/C [31]: 55%
viability, T/C [32]: 71%
viability, T/C [33]: 71.9%
viability, T/C [34]: 74%
viability, T/C [35]: 69.4%
viability, T/C [36]: 68.2%
viability, T/C [37]: 56.4%
viability, T/C [38]: 59.9%
viability, T/C [39]: 62.1%
viability, T/C [40]: 54%
viability, T/C [41]: 61.8%
viability, T/C [42]: 54.5%

CCN1CCN(Cc2ccc(Nc3ncc(F)c(-c4cc(F)c5nc(C)n(C(C)C)c5c4)n3)nc2)CC1 + CC(Nc1ccc2c(c1)OCCn1cc(N3C(=O)OCC3C(F)F)nc1-2)C(N)=O
IC50 (curve of first compound, second compound 0.00316 µM): > 1 µM
IC50 (curve of first compound, second compound 0.01 µM): > 1 µM
IC50 [1]: > 1 µM
IC50 [2]: 0.793 µM
IC50 [3]: 0.109 µM
IC50 [4]: 0.0551 µM
viability, T/C (second compound 0.00316 µM, first compound 0.00316 µM): 94.2%
viability, T/C (second compound 0.00316 µM, first compound 0.01 µM): 73.2%
viability, T/C (second compound 0.00316 µM, first compound 0.0316 µM): 86.9%
viability, T/C (second compound 0.00316 µM, first compound 0.1 µM): 75.2%
viability, T/C (second compound 0.00316 µM, first compound 0.316 µM): 80.9%
viability, T/C (second compound 0.00316 µM, first compound 1 µM): 70.5%
viability, T/C (second compound 0.01 µM, first compound 0.00316 µM): 94.9%
viability, T/C (second compound 0.01 µM, first compound 0.01 µM): 74.8%
viability, T/C (second compound 0.01 µM, first compound 0.0316 µM): 71.4%
viability, T/C (second compound 0.01 µM, first compound 0.1 µM): 93.2%
viability, T/C (second compound 0.01 µM, first compound 0.316 µM): 69.5%
viability, T/C (second compound 0.01 µM, first compound 1 µM): 67.7%
viability, T/C (second compound 0.0316 µM, first compound 0.00316 µM): 77.6%
viability, T/C (second compound 0.0316 µM, first compound 0.01 µM): 81.3%
viability, T/C [7]: 79.2%
viability, T/C [8]: 86.8%
viability, T/C [9]: 63.4%
viability, T/C [10]: 52.3%
viability, T/C (second compound 0.1 µM, first compound 0.00316 µM): 62.7%
viability, T/C (second compound 0.1 µM, first compound 0.01 µM): 64.6%
viability, T/C [13]: 69.8%
viability, T/C [14]: 65.1%
viability, T/C [15]: 47.3%
viability, T/C [16]: 51.3%
viability, T/C (second compound 0.316 µM, first compound 0.00316 µM): 62.7%
viability, T/C (second compound 0.316 µM, first compound 0.01 µM): 54.9%
viability, T/C [19]: 57.4%
viability, T/C [20]: 47.5%
viability, T/C [21]: 48.6%
viability, T/C [22]: 42.5%
viability, T/C (second compound 1 µM, first compound 0.00316 µM): 59.4%
viability, T/C (second compound 1 µM, first compound 0.01 µM): 52.2%
viability, T/C [25]: 54.2%
viability, T/C [26]: 49.3%
viability, T/C [27]: 35.5%
viability, T/C [28]: 26%
